In assay [1] the test system is TCF promoter activity (canonical WNT signaling) in IMR90-1 hiPSCs. The experiment in a line: TOPflash TCF reporter-luciferase assay in hiPSCs. It is filed as cell-based, human. The conditions noted are these: 10 μM, with 60 ng/ml Wnt3a or 3 μM BIO. As to the method:
For the TCF reporter assay, IMR90-1 hiPSCs were cultured in the serum-containing differentiation culture, as described above, and transfected with TOPFlash plasmid (Millipore 21-170) and pRL-SV40 plasmid (Renilla luciferase transfection control, Promega E1980) on Day 2, using FuGENE HD transfection Reagenet (Promega E2311). After 24 h, 10 μM KY02111, 10 μM XAV939, or 10 μM IWP-2 was added to the medium, along with either 60 ng ml^−1 of mouse Wnt3a (Wako 232-02421) or 3 μM BIO. After 48 h of transfection (Day 4), luciferase activities were measured using a Dual-Luciferase Reporter 1000 Assay System kit (Promega E1980) and a 2030 ARVO X3 plate reader (PerkinElmer). Luciferase activities were normalized to the luminescence of the transfection control, Rennila luciferase, according to the kit protocol. For experiments using HEK293 cells, the cells were cultured in 10% FBS DMEM medium, and transfected with TOPflash and pRL-SV40 plasmid, using FuGENE HD. After 24 h, the transfected cells were seeded onto 96-well plates (10,000 cells well^−1) in medium containing 10 μM KY02111, 10 μM XAV939, or 10 μM IWP-2, along with 3 μM BIO or 60 ng ml^−1 mouse Wnt3a. Luciferase activities were measured 48 h after transfection by the procedure described above.

Assay [2] has as its system human αMHC promoter-driven EGFP transgenic monkey ESCs. Put plainly: αMHC promoter-driven GFP expression, cardiac differentiation of transgenic monkey ESCs (HCA). It is filed as cell-based. The note with it: for intensity of the GFP signal driven by αMHC promoter: comparison of chemical and proteinaceous WNT inhibitors, FIG. 3b,c; for cardiac differentiation when BIO was added: monkey ESCs and hiPSCs, with 5 μM BIO. The text has this: To generate human αMHC promoter-driven EGFP-expressing monkey ESCs, the 918 bp upstream from the transcriptional starting site and the third exon just before the open reading frame were amplified from genomic DNAs of KhES-1 hESCs by PCR, using the following primer sets —forward primer, 5′- […]-3′ (SEQ ID No: 37); reverse primer, 5′- (including a SalI linker) 22 […]-3′ (SEQ ID No: 38)—and then ligated into pGEM-T Easy Vector (Promega). The HindIII/SalI fragment from the cloning vector was connected with pEGFP-1 (Clontech). The linearized αMHC-EFGP vector was introduced into CMK6.4 monkey ESCs by electroporation. Transgenic ESC clones were selectively grown with G418 (Sigma-Aldrich). The expression of EGEP was confirmed in beating colonies.
The confluent (4-5 d after passage) αMHC-GFP transgenic monkey ESCs were dissociated enzymatically by CTK solution (Non-patent literature 1), and the ESC clumps (40-100 μm in diameter) were obtained using 40 and 100 μm Cell Strainers (BD Biosciences). The ESC clumps (approximately 5.0×10^3 cells well^−1) were transferred onto 96-well plates (Greiner Bio-One, 96-well black plate, Cat. No. 655090) and incubated in cardiac differentiation medium as described in (4) below. During Days 6-14 of cardiac differentiation, 9600 compounds from the chemical library (dissolved in DMSO) were screened using 96-well plates. Sixteen and 80 wells were used for the control (0.1% DMSO) and chemical compounds (1 per well), respectively. Final concentration of the each compound was approximately 1-5 μM. Medium containing small molecules was changed every 4 d. On Day 14, GFP fluorescence of ESCs was measured by whole-plate scanning, using the Metamorph imaging system (Molecular Device). Metamorph software was used to analyze the GFP fluorescence data and calculate Fluorescence Area, Total Fluorescence Intensity, Average Fluorescence Intensity, and number of GFP-positive colonies for each well. Hit compounds were determined by the following criteria: Average Fluorescence Intensity of a well with the compound was >6 SD greater than Average Fluorescence Intensity of the control (mean of 16 wells), and Total Fluorescence Intensity for the compound was >0 SD greater than the control; or Total Fluorescence Intensity of the compound was >4 SD greater than the control, and Average Fluorescence Intensity of the compound was >0 SD greater than the control. One hundred and twenty compounds passed these criteria and were retested using 8 wells for each compound.
Confluent hESCs and hiPSCs were gently detached with CTK solution and transferred into Petri dishes (BD Biosciences) with Primate ES Cell Culture Medium (ReproCELL, Japan). Cells were held in suspension culture for 8-24 h to form aggregates. The sizes of hPSC aggregates (0.3-1 mm in diameter) are important for efficient differentiation. Following suspension culture, cell aggregates were attached to culture dishes (3-10×10^5 cells cm^−2) in cardiac differentiation medium: IMDM (Sigma), containing 20% FBS (Gibco), 1% MEM non-essential amino acid solution (Sigma), 1% Penicillin-Streptomycin (Gibco), 2 mM L-glutamine (Sigma), 0.001% 2-Mercaptoethanol (Gibco), and 0.005N NaOH, with 10 ng ml^−1 BMP4 (R&D Systems). The medium was changed to cardiac differentiation medium with 10 μM KY02111 and/or other WNT inhibitors added on Day 3 (hiPSC lines) or Day 4 (human or monkey ESC lines); XAV939 (Wako, Japan), IWP-2 (Santa Cruz Biotechnology), IWR-1 (Merck4Bioscience), IGFBP4 (R&D Systems), Dkk1 (R&D Systems) and the mixture of bFGF (R&D Systems), BMP4 (R&D Systems), VEGF (R&D Systems), DKK1 (R&D Systems), and Activin A (R&D Systems) (Non-patent literature 16). Medium was changed every 2-3 d. KY02111 and other WNT inhibitors were added until Day 9 for hiPSC lines and the monkey ESC line, or Day 14 for hESC lines. […]

Molecules are shown by their SMILES. “Also recorded” adds a separate entry of the source.

Regarding `Oc1nc(-c2ccc(C(F)(F)F)cc2)nc2c1CSCC2` [XAV939, reference compound], the “TCF promoter (luciferase) activity elevated by Wnt3a or BIO” value in assay [1] is “clearly reduced luciferase activities; also recorded: inhibited”. Further, in assay [2], the “intensity of the GFP signal driven by αMHC promoter” value was “increased” and the “cardiac differentiation when BIO was added” value was “completely inhibited”.
For `Cc1ccc2nc(NC(=O)CSc3nc4c(c(=O)n3-c3ccccc3)SCC4)sc2c1` [IWP-2, reference compound], in that order: “didn't inhibit”, “increased” and “completely inhibited”.
With `COc1ccc(CCC(=O)Nc2nc3ccc(Cl)cc3s2)cc1OC` [KY02111, 2-(3-(3,4-dimethoxyphenyl)propanamide)-6-chlorobenzothiazole], the “TCF promoter (luciferase) activity elevated by Wnt3a or BIO” value in assay [1] is “clearly reduced luciferase activities; also recorded: inhibited”. The “increase of differentiation compared to the control (GFP signal)” value in assay [2] (10 μM, comparison of WNT inhibitors, FIG. 3b) is “about 80 fold”. Moreover, in assay [2] (DMSO=100%), the “GFP expression level induced by N11474 and related compounds (structure-activity)” value is listed as “induced the highest levels”. Further, in assay [2] (FIG. 1d), the “promotion of cardiac differentiation relative to DMSO control (GFP increase ratio)” value is “about 73 times” and the “promotion of cardiac differentiation relative to N11474” value is given as 7.4 times. In assay [2], the “intensity of the GFP signal driven by αMHC promoter” value is reported as “most effective” and the “cardiac differentiation when BIO was added” value was “not affected by BIO”.

The values above are taken from patent US9587220B2, “Method for inducing cardiac differentiation of pluripotent stem cell” (Kyoto University, priority 2012, dated 2017).
